{"source": "ChEMBL document CHEMBL3885881", "about": "“DrugMatrix”", "species_on_record": "Rattus norvegicus", "assay": "DrugMatrix - Regimen: Daily Repeat", "format": "toxicity, organism-based, Sprague-Dawley", "parameters": "regimen Daily Repeat, gender Male, age 6-8 weeks", "settings": "in vivo, po, route oral GAVAGE, vehicle .5 % CMC; for ABSOLUTE BASOPHIL / BASOPHIL / EOSINOPHIL / ERYTHROCYTE COUNT / HEMATOCRIT / HEMOGLOBIN / LEUKOCYTE COUNT / LYMPHOCYTE / MEAN CORPUSCULAR HEMOGLOBIN / MEAN CORPUSCULAR HEMOGLOBIN CONCENTRATION / MEAN CORPUSCULAR VOLUME / MONOCYTE / NEUTROPHIL / PLATELET COUNT: tissue Blood; for ALANINE AMINOTRANSFERASE / ALKALINE PHOSPHATASE / ASPARTATE AMINOTRANSFERASE / BLOOD UREA NITROGEN / CHLORIDE / CHOLESTEROL / CREATINE PHOSPHOKINASE / CREATININE / GLUCOSE / PHOSPHORUS / POTASSIUM / SODIUM / TOTAL BILIRUBIN / TOTAL PROTEIN: tissue Plasma", "key": {"[1]": {"settings": "0 mg/kg, 72 h, dose level Control, time 3 day"}, "[2]": {"settings": "0 mg/kg, 120 h, dose level Control, time 5 day"}, "[3]": {"settings": "20 mg/kg, 72 h, dose level Low, time 3 day"}}, "data": [{"smiles": "CC(C(=O)O)c1ccc2oc(-c3ccc(Cl)cc3)nc2c1", "note": "(stereo not drawn) [BENOXAPROFEN]", "values": [{"measurement": "ABSOLUTE BASOPHIL", "setting": "[1]", "value": 16.7, "unit": "cells/µL"}, {"measurement": "BASOPHIL", "setting": "[1]", "value": 0.17, "unit": "%"}, {"measurement": "EOSINOPHIL", "setting": "[1]", "value": 0.62, "unit": "%"}, {"measurement": "ERYTHROCYTE COUNT", "setting": "[1]", "value": 6.55, "unit": "x10E6/uL"}, {"measurement": "HEMATOCRIT", "setting": "[1]", "value": 42, "unit": "%"}, {"measurement": "HEMOGLOBIN", "setting": "[1]", "value": 13.48, "unit": "G/DL"}, {"measurement": "LEUKOCYTE COUNT", "setting": "[1]", "value": 8.79, "unit": "x10E3/uL"}, {"measurement": "LYMPHOCYTE", "setting": "[1]", "value": 76.98, "unit": "%"}, {"measurement": "MEAN CORPUSCULAR HEMOGLOBIN", "setting": "[1]", "value": 20.57, "unit": "pg"}, {"measurement": "MEAN CORPUSCULAR HEMOGLOBIN CONCENTRATION", "setting": "[1]", "value": 32.08, "unit": "G/DL"}, {"measurement": "MEAN CORPUSCULAR VOLUME", "setting": "[1]", "value": 64.1, "unit": "fL"}, {"measurement": "MONOCYTE", "setting": "[1]", "value": 2.12, "unit": "%"}, {"measurement": "NEUTROPHIL", "setting": "[1]", "value": 19, "unit": "%"}, {"measurement": "PLATELET COUNT", "setting": "[1]", "value": 1432.17, "unit": "x10E3/uL"}, {"measurement": "ALANINE AMINOTRANSFERASE", "setting": "[1]", "value": 42.83, "unit": "u/L"}, {"measurement": "ALKALINE PHOSPHATASE", "setting": "[1]", "value": 328.5, "unit": "u/L"}, {"measurement": "ASPARTATE AMINOTRANSFERASE", "setting": "[1]", "value": 78.33, "unit": "u/L"}, {"measurement": "BLOOD UREA NITROGEN", "setting": "[1]", "value": 14.5, "unit": "mg/dL"}, {"measurement": "CHLORIDE", "setting": "[1]", "value": 104.5, "unit": "MEQ/L"}, {"measurement": "CHOLESTEROL", "setting": "[1]", "value": 78.67, "unit": "mg/dL"}, {"measurement": "CREATINE PHOSPHOKINASE", "setting": "[1]", "value": 282.33, "unit": "u/L"}, {"measurement": "CREATININE", "setting": "[1]", "value": 0.25, "unit": "mg/dL"}, {"measurement": "GLUCOSE", "setting": "[1]", "value": 173.67, "unit": "mg/dL"}, {"measurement": "PHOSPHORUS", "setting": "[1]", "value": 12.83, "unit": "mg/dL"}, {"measurement": "POTASSIUM", "setting": "[1]", "value": 6.7, "unit": "MEQ/L"}, {"measurement": "SODIUM", "setting": "[1]", "value": 145.83, "unit": "MEQ/L"}, {"measurement": "TOTAL BILIRUBIN", "setting": "[1]", "value": 0.4, "unit": "mg/dL"}, {"measurement": "TOTAL PROTEIN", "setting": "[1]", "value": 5.93, "unit": "G/DL"}, {"measurement": "ABSOLUTE BASOPHIL", "setting": "[2]", "value": 28, "unit": "cells/µL"}, {"measurement": "BASOPHIL", "setting": "[2]", "value": 0.26, "unit": "%"}, {"measurement": "EOSINOPHIL", "setting": "[2]", "value": 0.44, "unit": "%"}, {"measurement": "ERYTHROCYTE COUNT", "setting": "[2]", "value": 6.99, "unit": "x10E6/uL"}, {"measurement": "HEMATOCRIT", "setting": "[2]", "value": 45.12, "unit": "%"}, {"measurement": "HEMOGLOBIN", "setting": "[2]", "value": 14.26, "unit": "G/DL"}, {"measurement": "LEUKOCYTE COUNT", "setting": "[2]", "value": 9.42, "unit": "x10E3/uL"}, {"measurement": "LYMPHOCYTE", "setting": "[2]", "value": 79.92, "unit": "%"}, {"measurement": "MEAN CORPUSCULAR HEMOGLOBIN", "setting": "[2]", "value": 20.44, "unit": "pg"}, {"measurement": "MEAN CORPUSCULAR HEMOGLOBIN CONCENTRATION", "setting": "[2]", "value": 31.62, "unit": "G/DL"}, {"measurement": "MEAN CORPUSCULAR VOLUME", "setting": "[2]", "value": 64.6, "unit": "fL"}, {"measurement": "MONOCYTE", "setting": "[2]", "value": 2.2, "unit": "%"}, {"measurement": "NEUTROPHIL", "setting": "[2]", "value": 16.14, "unit": "%"}, {"measurement": "PLATELET COUNT", "setting": "[2]", "value": 1062.2, "unit": "x10E3/uL"}, {"measurement": "ALANINE AMINOTRANSFERASE", "setting": "[2]", "value": 44, "unit": "u/L"}, {"measurement": "ALKALINE PHOSPHATASE", "setting": "[2]", "value": 342.6, "unit": "u/L"}, {"measurement": "ASPARTATE AMINOTRANSFERASE", "setting": "[2]", "value": 74.17, "unit": "u/L"}, {"measurement": "BLOOD UREA NITROGEN", "setting": "[2]", "value": 13, "unit": "mg/dL"}, {"measurement": "CHLORIDE", "setting": "[2]", "value": 103, "unit": "MEQ/L"}, {"measurement": "CHOLESTEROL", "setting": "[2]", "value": 72.83, "unit": "mg/dL"}, {"measurement": "CREATINE PHOSPHOKINASE", "setting": "[2]", "value": 184.67, "unit": "u/L"}, {"measurement": "CREATININE", "setting": "[2]", "value": 0.47, "unit": "mg/dL"}, {"measurement": "GLUCOSE", "setting": "[2]", "value": 168.17, "unit": "mg/dL"}, {"measurement": "PHOSPHORUS", "setting": "[2]", "value": 12.27, "unit": "mg/dL"}, {"measurement": "POTASSIUM", "setting": "[2]", "value": 6.98, "unit": "MEQ/L"}, {"measurement": "SODIUM", "setting": "[2]", "value": 147, "unit": "MEQ/L"}, {"measurement": "TOTAL BILIRUBIN", "setting": "[2]", "value": 0.65, "unit": "mg/dL"}, {"measurement": "TOTAL PROTEIN", "setting": "[2]", "value": 6.23, "unit": "G/DL"}, {"measurement": "ABSOLUTE BASOPHIL", "setting": "[3]", "value": 20, "unit": "cells/µL"}, {"measurement": "BASOPHIL", "setting": "[3]", "value": 0.23, "unit": "%"}, {"measurement": "EOSINOPHIL", "setting": "[3]", "value": 0.43, "unit": "%"}, {"measurement": "ERYTHROCYTE COUNT", "setting": "[3]", "value": 6.67, "unit": "x10E6/uL"}, {"measurement": "HEMATOCRIT", "setting": "[3]", "value": 42.8, "unit": "%"}, {"measurement": "HEMOGLOBIN", "setting": "[3]", "value": 13.83, "unit": "G/DL"}, {"measurement": "LEUKOCYTE COUNT", "setting": "[3]", "value": 10.28, "unit": "x10E3/uL"}, {"measurement": "LYMPHOCYTE", "setting": "[3]", "value": 78.07, "unit": "%"}, {"measurement": "MEAN CORPUSCULAR HEMOGLOBIN", "setting": "[3]", "value": 20.73, "unit": "pg"}, {"measurement": "MEAN CORPUSCULAR HEMOGLOBIN CONCENTRATION", "setting": "[3]", "value": 32.33, "unit": "G/DL"}, {"measurement": "MEAN CORPUSCULAR VOLUME", "setting": "[3]", "value": 64.2, "unit": "fL"}, {"measurement": "MONOCYTE", "setting": "[3]", "value": 2.7, "unit": "%"}, {"measurement": "NEUTROPHIL", "setting": "[3]", "value": 16.57, "unit": "%"}, {"measurement": "PLATELET COUNT", "setting": "[3]", "value": 1248, "unit": "x10E3/uL"}, {"measurement": "ALANINE AMINOTRANSFERASE", "setting": "[3]", "value": 44.67, "unit": "u/L"}, {"measurement": "ALKALINE PHOSPHATASE", "setting": "[3]", "value": 316.67, "unit": "u/L"}, {"measurement": "ASPARTATE AMINOTRANSFERASE", "setting": "[3]", "value": 75.67, "unit": "u/L"}, {"measurement": "BLOOD UREA NITROGEN", "setting": "[3]", "value": 13.33, "unit": "mg/dL"}, {"measurement": "CHLORIDE", "setting": "[3]", "value": 104.33, "unit": "MEQ/L"}, {"measurement": "CHOLESTEROL", "setting": "[3]", "value": 64.33, "unit": "mg/dL"}, {"measurement": "CREATINE PHOSPHOKINASE", "setting": "[3]", "value": 179, "unit": "u/L"}, {"measurement": "CREATININE", "setting": "[3]", "value": 0.33, "unit": "mg/dL"}, {"measurement": "GLUCOSE", "setting": "[3]", "value": 176.67, "unit": "mg/dL"}, {"measurement": "PHOSPHORUS", "setting": "[3]", "value": 12.2, "unit": "mg/dL"}, {"measurement": "POTASSIUM", "setting": "[3]", "value": 6.37, "unit": "MEQ/L"}, {"measurement": "SODIUM", "setting": "[3]", "value": 146.33, "unit": "MEQ/L"}, {"measurement": "TOTAL BILIRUBIN", "setting": "[3]", "value": 0.37, "unit": "mg/dL"}]}]}
